Data as given in publication PMC6934184, “Selective DNA-PKcs inhibition extends the therapeutic index of localized radiotherapy and chemotherapy” (The Journal of Clinical Investigation, 2019).

Target: T1, DAPK1 (Homo sapiens, UniProt P53355)
T1 construct: purchased Thermo Fisher Scientific (Life Technologies) SelectScreen
Assay: SelectScreen Adapta
Type: biochemical
Procedure, shortened: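 SelectScreen broad panel; activity (Z'LYTE, Adapta) plus binding formats. ATP: Km app for CSF1R Z'LYTE; 10 for CAMK1 Adapta. Readout = % per kinase.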

T1 sequence (P53355 whole entry): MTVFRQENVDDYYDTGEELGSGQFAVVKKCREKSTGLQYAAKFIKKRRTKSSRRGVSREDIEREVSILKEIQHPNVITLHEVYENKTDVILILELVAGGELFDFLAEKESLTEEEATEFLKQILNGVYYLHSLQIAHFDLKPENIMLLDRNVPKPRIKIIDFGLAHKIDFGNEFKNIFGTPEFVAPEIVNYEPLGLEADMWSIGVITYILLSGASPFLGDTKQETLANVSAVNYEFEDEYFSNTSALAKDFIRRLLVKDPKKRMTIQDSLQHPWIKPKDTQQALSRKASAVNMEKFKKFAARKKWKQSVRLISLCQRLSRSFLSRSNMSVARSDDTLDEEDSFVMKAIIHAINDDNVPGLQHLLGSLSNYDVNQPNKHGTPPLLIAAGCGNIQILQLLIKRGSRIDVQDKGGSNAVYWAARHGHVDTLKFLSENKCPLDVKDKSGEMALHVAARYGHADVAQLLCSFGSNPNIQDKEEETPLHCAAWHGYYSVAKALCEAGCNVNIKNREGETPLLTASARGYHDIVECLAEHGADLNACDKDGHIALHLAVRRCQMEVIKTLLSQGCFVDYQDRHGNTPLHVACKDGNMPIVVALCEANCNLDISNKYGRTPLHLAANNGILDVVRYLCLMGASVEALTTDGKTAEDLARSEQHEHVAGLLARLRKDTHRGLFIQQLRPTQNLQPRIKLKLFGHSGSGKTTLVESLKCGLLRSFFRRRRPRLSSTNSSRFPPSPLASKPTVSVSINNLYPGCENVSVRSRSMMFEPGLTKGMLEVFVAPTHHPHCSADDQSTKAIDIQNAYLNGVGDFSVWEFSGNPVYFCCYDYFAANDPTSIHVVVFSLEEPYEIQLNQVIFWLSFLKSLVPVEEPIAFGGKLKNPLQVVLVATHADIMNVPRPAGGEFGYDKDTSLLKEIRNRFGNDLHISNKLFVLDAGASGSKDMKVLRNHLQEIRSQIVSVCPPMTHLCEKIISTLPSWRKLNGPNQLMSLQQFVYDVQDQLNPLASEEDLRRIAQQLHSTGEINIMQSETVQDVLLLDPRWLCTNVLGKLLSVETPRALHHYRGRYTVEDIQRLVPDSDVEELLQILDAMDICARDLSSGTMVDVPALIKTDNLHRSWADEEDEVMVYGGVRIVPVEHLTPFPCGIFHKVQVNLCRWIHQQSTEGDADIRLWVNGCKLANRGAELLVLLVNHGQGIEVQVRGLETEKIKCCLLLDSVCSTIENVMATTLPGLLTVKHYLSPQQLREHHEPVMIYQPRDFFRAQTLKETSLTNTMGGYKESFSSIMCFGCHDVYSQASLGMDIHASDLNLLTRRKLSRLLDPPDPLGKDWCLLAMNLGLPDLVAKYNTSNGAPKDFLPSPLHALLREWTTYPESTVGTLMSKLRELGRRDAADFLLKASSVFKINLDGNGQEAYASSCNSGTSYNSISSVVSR

CN(C(=O)CN1CCOCC1)c1ccc2sc3c(-c4cccc5c(=O)cc(N6CC7CCC(C6)O7)oc45)cccc3c2c1 [NU5455]
inhibition at 1 µM: 1.6%
